Source: patent publication US20220348549A1 (Hoffmann-La Roche Inc., priority 2019, published 2022)

What follows are molecules tested on HBV cccDNA (HBeAg level in HepDES19 cells) (assay: Engineered HepDES19 primary screen assay (HBeAg ELISA as surrogate marker for cccDNA)). Details: Hepatitis B virus, HepDES19, 120 h.
Assay type: cell-based
Source text: The assay was employed to screen for novel HBV cccDNA inhibitors. HepDES19 is a HBV cccDNA-producing cell line. In this cell line, HBeAg in the cell culture supernatant as surrogate marker, as HBeAg production depends on cccDNA level and activity. HepDES19 is an engineered cell line which contains a 1.1 unit length HBV genome, and pgRNA transcription from the transgene is controlled by Tetracycline (Tet). In the absence of Tet, pgRNA transcription will be induced, but HBV e antigen (HBeAg) could not be produced from this pgRNA due to very short leader sequence before the HBeAg start codon and the start codon is disrupted. Only after cccDNA is formed, the missing leader sequence and start codon mutation would be restored from the 3′-terminal redundancy of pgRNA, and then HBeAg could be synthesized. Therefore, HBeAg could be used as a surrogate marker for cccDNA (Zhou, T. et al., Antiviral Res. (2006), 72(2), 116-124; Guo, H. et al., J. Virol. (2007), 81(22), 12472-12484).
HepDES19 cells were seeded at 2×10^6 cells per T150 flask and cultured with the culture medium (Dulbecco's Modified Eagle Medium: Nutrient Mixture F-12 [DMEM-F12, Gibco Cat. 11320-82], 10% Fetal Bovine Serum [FBS, Clontech Cat. 631101], 0.1 mM Non-Essential Amino Acids Solution [NEAA, Gibco Cat. 11140-050], 50 μg/mL Penicillin-Streptomycin [PS, Invitrogen Cat. 15140-163], 500 μg/mL Geneticin [G418, Invitrogen Cat. 10131-027]) containing 3 μg/mL Tet (Sigma, Cat. 87128) for 5 days. Cells were then seeded at 4×10^6 cells per T150 in the same culture medium as described above in the absence of Tet for 8 days. Cells were then harvested and frozen at density of 2×10^6 cells per mL. For compound testing, the frozen cells were thawed and seeded into 96-well plates at a density of 6×10^4 cells per well. At 24 hrs after seeding, half log serial dilutions of compounds made with Dimethyl sulfoxide (DMSO, Sigma, Cat. D2650) were further diluted with the same culture medium as described above before they were added to the cells to reach desired final compound concentrations and 1% DMSO concentration. Plates were then incubated at 37° C. for another 5 days before measurement of HBeAg level and cell viability. Intracellular HBeAg level were measured with enzyme-linked immunosorbent assay (ELISA) kit (Shanghai Kehua Diagnostic Medical Products Co., Ltd). Cell viability was assessed using Cell Counting Kit-8 (Donjindo, Cat. CK04-20). IC50 values were derived from the dose-response curve using 4 parameter logistic curve fit method.
The compounds of the present invention were tested for their capacity to inhibit extracellular HBeAg level as described herein.
`Clc1cccc2cnc(-c3ccc(Br)cc3)nc12` [Example 1, 2-(4-Bromophenyl)-8-chloroquinazoline] was tested, and the IC50 was 100 nM.
With `Clc1cccc2cnc(-c3cccc(Br)c3)nc12` [Example 2, 2-(3-Bromophenyl)-8-chloroquinazoline] the IC50 was 360 nM.
Work on `Cc1nc(-c2cccc(C(F)(F)F)c2)nc2cc(Br)ccc12` [Example 3, 7-Bromo-4-methyl-2-[3-(trifluoromethyl)phenyl]quinazoline] yielded an IC50 of 750 nM.
Work on `Cc1nc(-c2cccc(Br)c2)nc2cc(C(F)(F)F)c(Cl)cc12` [Example 4, 2-(3-Bromophenyl)-6-chloro-4-methyl-7-(trifluoromethyl)quinazoline] yielded an IC50 of 3620 nM.
`Oc1ccc(-c2ncc3cccc(Cl)c3n2)cc1` [Example 5, 4-(8-Chloroquinazolin-2-yl)phenol] gave an IC50 of 4350 nM.
Molecule `COC(=O)c1cccc(COc2ccc(-c3ncc4cccc(Cl)c4n3)cc2)c1` [Example 6, Methyl 3-((4-(8-chloroquinazolin-2-yl)phenoxy)methyl)benzoate] has an IC50 of 6160 nM.
`O=C(O)c1cccc(COc2ccc(-c3ncc4cccc(Cl)c4n3)cc2)c1` [Example 7, 3-((4-(8-Chloroquinazolin-2-yl)phenoxy)methyl)benzoic acid] showed an IC50 of 220 nM.
With `Cc1nc(-c2ccc(OCc3cccc(C(=O)O)c3)cc2)nc2c(Cl)cccc12` [Example 8, 3-((4-(8-Chloro-4-methylquinazolin-2-yl)phenoxy)methyl)benzoic acid] the IC50 was 460 nM.
`Cc1nc(-c2ccc(OCCO)cc2)nc2c(Cl)cccc12` [Example 9, 2-[4-(8-Chloro-4-methyl-quinazolin-2-yl)phenoxy]ethanol] gave an IC50 of 1930 nM.
`COC(=O)COCCOc1ccc(-c2nc(C)c3cccc(Cl)c3n2)cc1` [Example 10, Methyl 2-[2-[4-(8-chloro-4-methyl-quinazolin-2-yl)phenoxy]ethoxy]acetate] gave an IC50 of 1040 nM.
`Cc1nc(-c2ccc(OCCOCC(=O)O)cc2)nc2c(Cl)cccc12` [Example 11, 2-[2-[4-(8-Chloro-4-methyl-quinazolin-2-yl)phenoxy]ethoxy]acetic acid] was tested, and the IC50 was 4490 nM.
`Cc1nc(-c2ccc(OCCO[C@H]3C[C@@H](C(=O)O)C3)cc2)nc2c(Cl)cccc12` [Example 12, cis-3-[2-[4-(8-Chloro-4-methyl-quinazolin-2-yl)phenoxy]ethoxy]cyclobutanecarboxylic acid] gave an IC50 of 63 nM.
In the case of `Cc1nc(-c2ccc(Cl)cc2)nc2c(Cl)cccc12` [Example 13, 8-Chloro-2-(4-chlorophenyl)-4-methylquinazoline], the IC50 is reported as 1030 nM.
With `Cc1nc(-c2ccc(OCCOCC(=O)O)cc2)nc2cc(C(F)(F)F)ccc12` [Example 14, 2-(2-(4-(4-Methyl-7-(trifluoromethyl)quinazolin-2-yl)phenoxy)ethoxy)acetic acid] the IC50 was 29900 nM.
Work on `Cc1nc(-c2ccc(OCCOC3CC(C(=O)O)C3)cc2)nc2cc(C(F)(F)F)ccc12` (stereo not shown) [Example 15, 3-(2-(4-(4-Methyl-7-(trifluoromethyl)quinazolin-2-yl)phenoxy)ethoxy) cyclobutanecarboxylic acid] yielded an IC50 of 60 nM.
In the case of `COCc1nc(-c2cccc(Br)c2)nc2cc(C(F)(F)F)ccc12` [Example 16, 2-(3-Bromophenyl)-4-(methoxymethyl)-7-(trifluoromethyl)quinazoline], the IC50 is reported as 2390 nM.
For `CN(C)Cc1nc(-c2cccc(Br)c2)nc2cc(C(F)(F)F)ccc12` [Example 17, 1-(2-(3-Bromophenyl)-7-(trifluoromethyl)quinazolin-4-yl)-N,N-dimethylmethanamine], the IC50 was 4660 nM.
Work on `FC(F)(F)c1ccc2c(CN3CCOCC3)nc(-c3cccc(Br)c3)nc2c1` [Example 18, 4-((2-(3-Bromophenyl)-7-(trifluoromethyl)quinazolin-4-yl)methyl)morpholine] yielded an IC50 of 1930 nM.
Molecule `OCc1nc(-c2cccc(Br)c2)nc2cc(C(F)(F)F)ccc12` [Example 20, (2-(3-Bromophenyl)-7-(trifluoromethyl)quinazolin-4-yl)methanol] has an IC50 of 3660 nM.
Molecule `OCc1nc(-c2ccc(Cl)cc2)nc2c(Cl)cccc12` [Example 21, (8-Chloro-2-(4-chlorophenyl)quinazolin-4-yl)methanol] has an IC50 of 94 nM.
`Cc1nc(-c2cccc(CO)c2)nc2cc(C(F)(F)F)ccc12` [Example 22, (3-(4-Methyl-7-(trifluoromethyl)quinazolin-2-yl)phenyl)methanol] showed an IC50 of 7130 nM.
Work on `Cc1nc(-c2ccc(Cl)nc2)nc2c(Cl)cccc12` [Example 23, 8-Chloro-2-(6-chloropyridin-3-yl)-4-methylquinazoline] yielded an IC50 of 220 nM.
`Clc1ccc(-c2ncc3cccc(Cl)c3n2)cn1` [Example 24, 8-Chloro-2-(6-chloropyridin-3-yl)quinazoline] gave an IC50 of 94 nM.
Molecule `Oc1ccc(-c2ncc3cccc(Cl)c3n2)cn1` [Example 25, 5-(8-Chloroquinazolin-2-yl)pyridin-2-ol] has an IC50 of 4680 nM.
Work on `CN(C)c1ccc(-c2ncc3cccc(Cl)c3n2)cn1` [Example 26, 5-(8-Chloroquinazolin-2-yl)-N,N-dimethylpyridin-2-amine] yielded an IC50 of 91 nM.
`Clc1cccc2cnc(-c3ccc(N4CCOCC4)nc3)nc12` [Example 27, 4-(5-(8-Chloroquinazolin-2-yl)pyridin-2-yl)morpholine] showed an IC50 of 590 nM.
For `OCCN(CCO)c1ccc(-c2ncc3cccc(Cl)c3n2)cn1` [Example 28, 2,2′-((5-(8-Chloroquinazolin-2-yl)pyridin-2-yl)azanediyl)diethanol], the IC50 was 300 nM.
`COC(=O)C1CCN(c2ccc(-c3ncc4cccc(Cl)c4n3)cn2)CC1` [Example 29, Methyl 1-(5-(8-chloroquinazolin-2-yl)pyridin-2-yl)piperidine-4-carboxylate] gave an IC50 of 1230 nM.
Work on `O=C(O)C1CCN(c2ccc(-c3ncc4cccc(Cl)c4n3)cn2)CC1` [Example 30, 1-(5-(8-chloroquinazolin-2-yl)pyridin-2-yl)piperidine-4-carboxylic acid] yielded an IC50 of 7630 nM.
Molecule `O=C(O)c1nc(-c2cccc(Br)c2)nc2cc(C(F)(F)F)ccc12` [Example 31, 2-(3-Bromo-phenyl)-7-trifluoromethyl-quinazoline-4-carboxylic acid] has an IC50 of 17800 nM.
Molecule `COC(=O)c1nc(-c2cccc(Br)c2)nc2cc(C(F)(F)F)ccc12` [Example 32, Methyl 2-(3-bromophenyl)-7-(trifluoromethyl)quinazoline-4-carboxylate] has an IC50 of 6190 nM.
In the case of `COc1ccc(-c2nc(C(=O)O)c3cccc(Cl)c3n2)cc1` [Example 33, 8-Chloro-2-(4-methoxyphenyl)quinazoline-4-carboxylic acid], the IC50 is reported as 7750 nM.
Work on `COc1ccc(-c2nc(C(N)=O)c3cccc(Cl)c3n2)cc1` [Example 34, 8-chloro-2-(4-methoxyphenyl)quinazoline-4-carboxamide] yielded an IC50 of 2220 nM.
Molecule `COc1ccc(-c2nc(C(=O)NCCO)c3cccc(Cl)c3n2)cc1` [Example 35, 8-Chloro-N-(2-hydroxyethyl)-2-(4-methoxyphenyl)quinazoline-4-carboxamide] has an IC50 of 16100 nM.
`COc1ccc(-c2ncc3cccc(Cl)c3n2)cc1` [Example 36, 8-Chloro-2-(4-methoxyphenyl)quinazoline] showed an IC50 of 180 nM.
In the case of `O=C(O)c1nc(-c2ccc(Br)cc2)nc2c(Cl)cccc12` [Example 37, 2-(4-Bromophenyl)-8-chloroquinazoline-4-carboxylic acid], the IC50 is reported as 2240 nM.
In the case of `CCOC(=O)c1nc(-c2ccc(Br)cc2)nc2c(Cl)cccc12` [Example 38, ethyl 2-(4-bromophenyl)-8-chloro-quinazoline-4-carboxylate], the IC50 is reported as 1160 nM.
